This note sets out measurements from US20230250066A1, “HERBICIDAL CINNOLINE DERIVATIVES” (SYNGENTA CROP PROTECTION AG, priority 2020, published 2023).

Holding throughout (assay type): in vivo
For assay [1], the system named is Echinochloa crus-galli (ECHCG). The assay can be described thus: Pre-emergence herbicidal test. The settings on record: 1000 g/ha, evaluated after 13 days.
Assay [2] has as its system Lolium perenne (LOLPE). The assay can be described thus: Pre-emergence herbicidal test. The settings on record: 1000 g/ha, evaluated after 13 days.
Assay [3] relates to Lolium perenne (LOLPE). The assay can be described thus: Post-emergence herbicidal test. The settings on record: 1000 g/ha unless otherwise stated, evaluated after 13 days. In short, it runs like this:
(§1)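 Damage score (0–5; 5=81-100%, 1=10-20%, 0=0%) read 13 d after spraying. Spray: acetone/water 50:50 + 0.5% Tween 20, 1000 g/ha unless stated.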

Assay [4] relates to Solanum nigrum (SOLNI). The assay can be described thus: Post-emergence herbicidal test. To be noted: 1000 g/ha unless otherwise stated, evaluated after 13 days. In a few lines:
as §1

In assay [5] the test system is Echinochloa crus-galli (ECHCG). The assay can be described thus: Post-emergence herbicidal test. To be noted: 1000 g/ha unless otherwise stated, evaluated after 13 days. In a few lines: as §1
Assay [6] deals with Setaria faberi (SETFA). The assay can be described thus: Post-emergence herbicidal test. To be noted: 1000 g/ha unless otherwise stated, evaluated after 13 days. In a few lines: as §1
Assay [7] concerns Ipomoea hederacea (IPOHE). The assay can be described thus: Post-emergence herbicidal test. The settings on record: 1000 g/ha unless otherwise stated, evaluated after 13 days. In short, it runs like this:
as §1

In assay [8] the test system is Amaranthus retoflexus (AMARE). The assay can be described thus: Post-emergence herbicidal test. The settings on record: 1000 g/ha unless otherwise stated, evaluated after 13 days. In short, it runs like this: as §1
Assay [9] concerns Amaranthus retoflexus (AMARE). The assay can be described thus: Pre-emergence herbicidal test. The settings on record: 1000 g/ha, evaluated after 13 days.
For assay [10], the system named is Solanum nigrum (SOLNI). The assay can be described thus: Pre-emergence herbicidal test. The settings on record: 1000 g/ha, evaluated after 13 days.
In assay [11] the test system is Ipomoea hederacea (IPOHE). The assay can be described thus: Pre-emergence herbicidal test. The settings on record: 1000 g/ha, evaluated after 13 days.
Assay [12] relates to Setaria faberi (SETFA). The assay can be described thus: Pre-emergence herbicidal test. The settings on record: 1000 g/ha, evaluated after 13 days.

Structures are written as SMILES.

As to `CS(=O)(=O)c1cccc2c1c(=O)c(C(=O)O)nn2-c1ccc(Cl)cc1` [Compound P5, 1-(4-chlorophenyl)-5-methylsulfonyl-4-oxo-cinnoline-3-carboxylic acid], in assay [1], the “percentage damage caused to the plant, five-point scale, ECHCG” value is listed as 4 (4=61-80%). The “percentage damage caused to the plant, five-point scale, LOLPE” value in assay [2] is listed as 4 (4=61-80%). For the same compound, the “percentage damage caused to the plant, LOLPE (five-point scale)” value in [3] was 4 (4=61-80%). Moreover, in assay [4], the “percentage damage caused to the plant, SOLNI (five-point scale)” value is on record as 4 (4=61-80%). Further, the “percentage damage caused to the plant, ECHCG (five-point scale)” value in [5] is 4 (4=61-80%). The “percentage damage caused to the plant, SETFA (five-point scale)” value in assay [6] is reported as 4 (4=61-80%). Moreover, the “percentage damage caused to the plant, IPOHE (five-point scale)” value in assay [7] is 1 (1=10-20%). Further, the “percentage damage caused to the plant, AMARE (five-point scale)” value in [8] is 1 (1=10-20%). In addition, the “percentage damage caused to the plant, five-point scale, AMARE” value in assay [9] is reported as 1 (1=10-20%). The “percentage damage caused to the plant, five-point scale, SOLNI” value in assay [10] was 1 (1=10-20%). Further, the “percentage damage caused to the plant, five-point scale, IPOHE” value in [11] is reported as 1 (1=10-20%). The “percentage damage caused to the plant, five-point scale, SETFA” value in [12] was 4 (4=61-80%).
For `CSc1cccc2c1c(=O)c(C(=O)O)nn2-c1ccc(Cl)cc1` [Compound P4, 1-(4-chlorophenyl)-5-methylsulfanyl-4-oxo-cinnoline-3-carboxylic acid], the “percentage damage caused to the plant, five-point scale, ECHCG” value in assay [1] is given as 0 (0=0%). Also, in [2], the “percentage damage caused to the plant, five-point scale, LOLPE” value is 0 (0=0%). In addition, the “percentage damage caused to the plant, LOLPE (five-point scale)” value in assay [3] is reported as 0 (0=0%). The “percentage damage caused to the plant, SOLNI (five-point scale)” value in assay [4] is recorded as 0 (0=0%). Also, the “percentage damage caused to the plant, ECHCG (five-point scale)” value in assay [5] is given as 0 (0=0%). The “percentage damage caused to the plant, SETFA (five-point scale)” value in assay [6] is reported as 0 (0=0%). In assay [7], the “percentage damage caused to the plant, IPOHE (five-point scale)” value is listed as 0 (0=0%). In addition, the “percentage damage caused to the plant, AMARE (five-point scale)” value in [8] was 0 (0=0%). Further, the “percentage damage caused to the plant, five-point scale, AMARE” value in assay [9] is reported as 0 (0=0%). Also, the “percentage damage caused to the plant, five-point scale, SOLNI” value in [10] is 0 (0=0%). Also, the “percentage damage caused to the plant, five-point scale, IPOHE” value in assay [11] is recorded as 0 (0=0%). The “percentage damage caused to the plant, five-point scale, SETFA” value in [12] is 0 (0=0%).
As for `CSc1cccc2c1c(=O)c(C(=O)O)nn2-c1ccc(OC(F)(F)F)cc1` [Compound P1, 5-methylsulfanyl-4-oxo-1-[4-(trifluoromethoxy)phenyl]cinnoline-3-carboxylic acid], the “percentage damage caused to the plant, five-point scale, ECHCG” value in assay [1] is listed as 0 (0=0%). In addition, in [2], the “percentage damage caused to the plant, five-point scale, LOLPE” value is 0 (0=0%). Moreover, the “percentage damage caused to the plant, LOLPE (five-point scale)” value in [3] is given as 0 (0=0%). In addition, the “percentage damage caused to the plant, SOLNI (five-point scale)” value in assay [4] is reported as 0 (0=0%). The “percentage damage caused to the plant, ECHCG (five-point scale)” value in assay [5] is listed as 0 (0=0%). Further, in assay [6], the “percentage damage caused to the plant, SETFA (five-point scale)” value is recorded as 0 (0=0%). The “percentage damage caused to the plant, IPOHE (five-point scale)” value in assay [7] is 0 (0=0%). Further, the “percentage damage caused to the plant, AMARE (five-point scale)” value in assay [8] is 0 (0=0%). Moreover, in [9], the “percentage damage caused to the plant, five-point scale, AMARE” value is reported as 0 (0=0%). Further, the “percentage damage caused to the plant, five-point scale, SOLNI” value in [10] is recorded as 0 (0=0%). For the same compound, in assay [11], the “percentage damage caused to the plant, five-point scale, IPOHE” value was 0 (0=0%). The “percentage damage caused to the plant, five-point scale, SETFA” value in assay [12] is 0 (0=0%).
As to `CS(=O)(=O)c1cccc2c1c(=O)c(C(=O)O)nn2-c1ccc(OC(F)(F)F)cc1` [Compound P2, 5-methylsulfonyl-4-oxo-1-[4-(trifluoromethoxy)phenyl]cinnoline-3-carboxylic acid], in [1], the “percentage damage caused to the plant, five-point scale, ECHCG” value is given as 5 (5=81-100%). The “percentage damage caused to the plant, five-point scale, LOLPE” value in assay [2] is 5 (5=81-100%). Moreover, in assay [3], the “percentage damage caused to the plant, LOLPE (five-point scale)” value is listed as 4 (4=61-80%). In addition, the “percentage damage caused to the plant, SOLNI (five-point scale)” value in [4] was 4 (4=61-80%). Besides, the “percentage damage caused to the plant, ECHCG (five-point scale)” value in assay [5] is on record as 4 (4=61-80%). Moreover, the “percentage damage caused to the plant, SETFA (five-point scale)” value in assay [6] is recorded as 4 (4=61-80%). The “percentage damage caused to the plant, IPOHE (five-point scale)” value in assay [7] is recorded as 2 (2=21-40%). The “percentage damage caused to the plant, AMARE (five-point scale)” value in [8] was 1 (1=10-20%). For the same compound, the “percentage damage caused to the plant, five-point scale, AMARE” value in assay [9] is given as 1 (1=10-20%). Also, the “percentage damage caused to the plant, five-point scale, SOLNI” value in assay [10] is recorded as 4 (4=61-80%). Besides, the “percentage damage caused to the plant, five-point scale, IPOHE” value in assay [11] is given as 1 (1=10-20%). Besides, in assay [12], the “percentage damage caused to the plant, five-point scale, SETFA” value is given as 5 (5=81-100%).
`COC(=O)c1nn(-c2ccc(OC(F)(F)F)cc2)c2cccc(S(C)(=O)=O)c2c1=O` [Compound P3, methyl 5-methylsulfonyl-4-oxo-1-[4-(trifluoromethoxy)phenyl]cinnoline-3-carboxylate]: the “percentage damage caused to the plant, five-point scale, ECHCG” value in [1] is 4 (4=61-80%). Moreover, the “percentage damage caused to the plant, five-point scale, LOLPE” value in assay [2] is recorded as 4 (4=61-80%). For the same compound, the “percentage damage caused to the plant, LOLPE (five-point scale)” value in assay [3] is 4 (4=61-80%). Further, the “percentage damage caused to the plant, SOLNI (five-point scale)” value in assay [4] is recorded as 1 (1=10-20%). Further, the “percentage damage caused to the plant, ECHCG (five-point scale)” value in assay [5] is 4 (4=61-80%). Moreover, the “percentage damage caused to the plant, SETFA (five-point scale)” value in [6] is listed as 4 (4=61-80%). Moreover, the “percentage damage caused to the plant, IPOHE (five-point scale)” value in assay [7] was 1 (1=10-20%). In addition, the “percentage damage caused to the plant, AMARE (five-point scale)” value in assay [8] is 1 (1=10-20%). Also, in assay [9], the “percentage damage caused to the plant, five-point scale, AMARE” value is 1 (1=10-20%). The “percentage damage caused to the plant, five-point scale, SOLNI” value in [10] was 1 (1=10-20%). Besides, in assay [11], the “percentage damage caused to the plant, five-point scale, IPOHE” value is reported as 1 (1=10-20%). In [12], the “percentage damage caused to the plant, five-point scale, SETFA” value was 4 (4=61-80%).
